Measurements published in the OligoGym collection.
Where “and” joins values, the source holds several entries; their conditions need not be identical. Equal entries are not always repeated. After the bases stand the sugars from the 5' end (letter, count) and the backbone: PS all phosphorothioate, else s phosphorothioate and o phosphodiester by linkage. Methylation of C is not given here. e = 2'-O-(2-methoxyethyl) (MOE); k = constrained ethyl (cEt); d = 2'-deoxy (DNA)

Target: IRF5
Conditions: ASO

| Sequence | target mRNA inhibition (KARPAS-229, 4 µM) | other results |
| --- | --- | --- |
| CATTCCATATACACAC (sugars kddddddddddkekek, PS) | 31% |  |
| CATTCCATATACACAC (sugars kkdddddddddkdkdk, PS) | 25% |  |
| CCAATGCAACATCCAT (sugars k2 d9 e3 k2, PS) | 0% |  |
| CCAATGCAACATCCAT (sugars k3 d10 k3, PS) | 0% |  |
| CCAATTTTGCATTCCA (sugars k2 d8 e4 k2, PS) | 48% |  |
| CCAATTTTGCATTCCA (sugars k3 d10 k3, PS) | 78% and 83% | target mRNA inhibition (KARPAS-229, 0.44444 µM): 51%; target mRNA inhibition (KARPAS-229, 1.33333 µM): 74%; target mRNA inhibition (KARPAS-229, 12 µM): 89% |
| CCACTGTGTACCCCAT (sugars kkddddddddkekekk, PS) | 0% |  |
| CCATTCTATGCCTTTT (sugars kkddddddddddkeke, PS) | 61% and 62% | target mRNA inhibition (KARPAS-229, 0.44444 µM): 37%; target mRNA inhibition (KARPAS-229, 1.33333 µM): 45%; target mRNA inhibition (KARPAS-229, 12 µM): 73% |
| CCATTCTATGCCTTTT (sugars kkdddddddddkdkdk, PS) | 46% |  |
| CCATTCTATGCCTTTT (sugars kkddddddddkekekk, PS) | 3% |  |
| CCATTCTATGCCTTTT (sugars kkkddddddddkekek, PS) | 44% |  |
| CCCAATGCAACATCCA (sugars k3 d10 k3, PS) | 12% |  |
| CCCAATGCAACATCCA (sugars kkkddddddddkdkdk, PS) | 0% |  |
| CCTTCTGCAGGGAGTC (sugars k3 d9 k3 e1, PS) | 0% |  |
| CCTTCTGCAGGGAGTC (sugars k3 d10 k3, PS) | 0% |  |
| CCTTCTGCAGGGAGTC (sugars kkddddddddddkeke, PS) | 0% |  |
| CGGTCTTTGAGGTCTG (sugars kddddddddddkekek, PS) | 68% |  |
| CTAGTGTCATGGAATT (sugars k3 d10 k3, PS) | 34% |  |
| CTGACACAGGCGGATG (sugars kdddddddddkekeke, PS) | 0% |  |
| CTGACACAGGCGGATG (sugars kkddddddddkekekk, PS) | 0% |  |
| CTGATATGATACCTAA (sugars k3 d1 k1 d8 k3, PS) |  | target mRNA inhibition (A-431, 0.00412 µM): 20%; target mRNA inhibition (A-431, 0.01225 µM): 29%; target mRNA inhibition (A-431, 0.03704 µM): 38%; target mRNA inhibition (A-431, 0.11111 µM): 64%; target mRNA inhibition (A-431, 0.33333 µM): 83%; target mRNA inhibition (A-431, 1 µM): 83% |
| CTGTCACATCTCCACA (sugars kkddddddddkekekk, PS) | 0% |  |
| CTTCTGCAGGGAGTCA (sugars k3 d9 k3 e1, PS) | 0% |  |
| CTTCTGCAGGGAGTCA (sugars kkdddddddddkdkdk, PS) | 0% |  |

| Sequence | target mRNA inhibition (KARPAS-229, 4 µM) | other results |
| --- | --- | --- |
| CTTCTGCAGGGAGTCA (sugars kkkddddddddkekek, PS) | 0% |  |
| CTTGATTCCAATTTTG (sugars k3 d10 k3, PS) | 20% |  |
| CTTGGTCTTGACCTCC (sugars k2 d8 e4 k2, PS) | 20% |  |
| CTTGGTCTTGACCTCC (sugars k3 d9 k3 e1, PS) | 6% |  |
| CTTGGTCTTGACCTCC (sugars kkddddddddddkeke, PS) | 39% |  |
| CTTGGTCTTGACCTCC (sugars kkdddddddddkdkdk, PS) | 13% |  |
| CTTGGTCTTGACCTCC (sugars kkdddddddddkekek, PS) | 3% |  |
| CTTGGTCTTGACCTCC (sugars kkddddddddkekekk, PS) | 0% |  |
| CTTGGTCTTGACCTCC (sugars kkkddddddddkdkdk, PS) | 19% |  |
| CTTGGTCTTGACCTCC (sugars kkkddddddddkekek, PS) | 1% |  |
| GAGACGAGCAAAGGGT (sugars k3 d10 k3, PS) | 40% |  |
| GAGCAAAGGGTGAGTA (sugars k3 d10 k3, PS) | 0% |  |
| GAGTAATAGGAGTGAG (sugars k3 d10 k3, PS) | 33% |  |
| GAGTCATGGGCTGAGG (sugars k2 d8 e4 k2, PS) | 5% |  |
| GAGTCATGGGCTGAGG (sugars k2 d9 e3 k2, PS) | 30% |  |
| GAGTCATGGGCTGAGG (sugars kddddddddddkekek, PS) | 0% |  |
| GAGTCATGGGCTGAGG (sugars kkdddddddddkdkdk, PS) | 31% |  |
| GAGTCTCAAACCAGGG (sugars kdddddddddkekeke, PS) | 6% |  |
| GAGTGAGACGAGCAAA (sugars kddddddddddkekek, PS) | 18% |  |
| GAGTGAGACGAGCAAA (sugars kdddddddddkekeke, PS) | 6% |  |
| GATGGTGTTATCTCCG (sugars kkddddddddddkeke, PS) | 0% |  |
| GCATTCCATATACACA (sugars kdddddddddkekeke, PS) | 34% |  |
| GCATTCCATATACACA (sugars kkddddddddkekekk, PS) | 0% |  |
| GCTGTCACATCTCCAC (sugars k3 d10 k3, PS) | 33% |  |

| Sequence | target mRNA inhibition (KARPAS-229, 4 µM) | other results |
| --- | --- | --- |
| GCTTGGTCTTGACCTC (sugars k2 d8 e4 k2, PS) | 19% |  |
| GCTTGGTCTTGACCTC (sugars kddddddddddkekek, PS) | 18% |  |
| GCTTGGTCTTGACCTC (sugars kkddddddddddkeke, PS) | 9% |  |
| GCTTGGTCTTGACCTC (sugars kkkddddddddkdkdk, PS) | 30% |  |
| GGAAGTGAGTCTCAAA (sugars kkdddddddddkekek, PS) | 25% |  |
| GGAAGTGAGTCTCAAA (sugars kkkddddddddkekek, PS) | 45% |  |
| GGAGTGAGACGAGCAA (sugars k3 d10 k3, PS) | 37% |  |
| GGAGTGAGACGAGCAA (sugars kkdddddddddkekek, PS) | 27% |  |
| GGAGTGAGACGAGCAA (sugars kkkddddddddkekek, PS) | 5% |  |
| GGGAGTCAGACCTACC (sugars k3 d10 k3, PS) | 0% |  |
| GGGCACAGCGCAGGTT (sugars kdddddddddkekeke, PS) | 33% |  |
| GGTCTGGCCCTTTTGG (sugars kddddddddddkekek, PS) | 0% |  |
| GGTCTGGCCCTTTTGG (sugars kdddddddddkekeke, PS) | 0% |  |
| GGTCTGGCCCTTTTGG (sugars kkddddddddddkeke, PS) | 0% |  |
| GGTCTTGACCTCCCGC (sugars kddddddddddkekek, PS) | 37% |  |
| GGTCTTTGAGGTCTGG (sugars k2 d8 e4 k2, PS) | 56% |  |
| GGTCTTTGAGGTCTGG (sugars k3 d9 k3 e1, PS) | 33% |  |
| GGTCTTTGAGGTCTGG (sugars kkddddddddkekekk, PS) | 52% |  |
| GGTGTATTTCCCTGTC (sugars k3 d9 k3 e1, PS) | 0% |  |
| GGTGTATTTCCCTGTC (sugars kdddddddddkekeke, PS) | 0% |  |
| GGTGTATTTCCCTGTC (sugars kkddddddddkekekk, PS) | 0% |  |
| GGTTCTTGGACTCTCA (sugars k2 d8 e4 k2, PS) | 54% and 64% | target mRNA inhibition (KARPAS-229, 0.44444 µM): 25%; target mRNA inhibition (KARPAS-229, 1.33333 µM): 51%; target mRNA inhibition (KARPAS-229, 12 µM): 77% |
| GGTTCTTGGACTCTCA (sugars k2 d9 e3 k2, PS) | 48% and 73% | target mRNA inhibition (KARPAS-229, 0.44444 µM): 46%; target mRNA inhibition (KARPAS-229, 1.33333 µM): 64%; target mRNA inhibition (KARPAS-229, 12 µM): 84% |
| GGTTCTTGGACTCTCA (sugars kkdddddddddkekek, PS) | 0% |  |

| Sequence | target mRNA inhibition (KARPAS-229, 4 µM) | other results |
| --- | --- | --- |
| GGTTCTTGGACTCTCA (sugars kkkddddddddkdkdk, PS) | 28% |  |
| GTCTGGCCCTTTTGGA (sugars k2 d8 e4 k2, PS) | 0% |  |
| GTCTGGCCCTTTTGGA (sugars kkdddddddddkekek, PS) | 0% |  |
| GTCTTGACCTCCCGCT (sugars k2 d8 e4 k2, PS) | 34% |  |
| GTCTTGACCTCCCGCT (sugars k2 d9 e3 k2, PS) | 54% and 41% | target mRNA inhibition (KARPAS-229, 0.44444 µM): 22%; target mRNA inhibition (KARPAS-229, 1.33333 µM): 32%; target mRNA inhibition (KARPAS-229, 12 µM): 58% |
| GTCTTGACCTCCCGCT (sugars kkddddddddkekekk, PS) | 26% |  |
| GTGACTGTATTACCTA (sugars k3 d10 k3, PS) | 62% and 70% | target mRNA inhibition (KARPAS-229, 0.44444 µM): 9%; target mRNA inhibition (KARPAS-229, 1.33333 µM): 39%; target mRNA inhibition (KARPAS-229, 12 µM): 81% |
| GTGAGACGAGCAAAGG (sugars k3 d10 k3, PS) | 49% and 74% | target mRNA inhibition (KARPAS-229, 0.44444 µM): 60%; target mRNA inhibition (KARPAS-229, 1.33333 µM): 49%; target mRNA inhibition (KARPAS-229, 12 µM): 77% |
| GTGAGTCTCAAACCAG (sugars k3 d9 k3 e1, PS) | 44% and 50% | target mRNA inhibition (KARPAS-229, 0.44444 µM): 23%; target mRNA inhibition (KARPAS-229, 1.33333 µM): 39%; target mRNA inhibition (KARPAS-229, 12 µM): 59% |
| GTGAGTCTCAAACCAG (sugars k3 d10 k3, PS) | 9% |  |
| GTGAGTCTCAAACCAG (sugars kdddddddddkekeke, PS) | 0% |  |
| GTGAGTCTCAAACCAG (sugars kkdddddddddkekek, PS) | 0% |  |
| GTGTATTTCCCTGTCT (sugars k2 d8 e4 k2, PS) | 0% |  |
| GTGTATTTCCCTGTCT (sugars k3 d9 k3 e1, PS) | 30% |  |
| GTGTATTTCCCTGTCT (sugars kkdddddddddkdkdk, PS) | 0% |  |
| GTTATCTCCGTCCTGG (sugars kekdddddddddeekk, PS) | 13% |  |
| GTTATCTCCGTCCTGG (sugars kkdddddddddkekek, PS) | 0% |  |
| GTTATCTCCGTCCTGG (sugars kkddddddddkekekk, PS) | 0% |  |
| GTTATCTCCGTTCCTGG (sugars kkkdddddddddkeked, PS) | 0% |  |
| GTTATCTCCGTTCCTGG (sugars kkkddddddddkekekd, PS) | 0% |  |
| GTTCTTGGACTCTCAA (sugars k2 d8 e4 k2, PS) | 8% |  |
